Measured values reported in paper PMC4076210, “Discovery of Novel AKT Inhibitors with Enhanced Anti-Tumor Effects in Combination with the MEK Inhibitor” (PLoS ONE, 2014).
Where two headings read alike, the source gives them in different places.

Columns and labels:
Assay in all cases: Kinase panel
Type in all cases: biochemical
HIPK3(h) = target: T1, HIPK3(h) (Homo sapiens, UniProt Q9H422)
T1 construct: purchased Millipore KinaseProfiler

mTOR/FKBP12(h) = target: T2, mTOR/FKBP12(h) (Homo sapiens, UniProt P42345)
T2 construct: purchased Millipore KinaseProfiler

PDGFRβ(h) = target: T3, PDGFRβ(h) (Homo sapiens, UniProt P09619)
T3 construct: purchased Millipore KinaseProfiler

GRK7(h) = target: T4, GRK7(h) (Homo sapiens, UniProt Q8WTQ7)
T4 construct: purchased Millipore KinaseProfiler
T4 sequence (Q8WTQ7 1-553): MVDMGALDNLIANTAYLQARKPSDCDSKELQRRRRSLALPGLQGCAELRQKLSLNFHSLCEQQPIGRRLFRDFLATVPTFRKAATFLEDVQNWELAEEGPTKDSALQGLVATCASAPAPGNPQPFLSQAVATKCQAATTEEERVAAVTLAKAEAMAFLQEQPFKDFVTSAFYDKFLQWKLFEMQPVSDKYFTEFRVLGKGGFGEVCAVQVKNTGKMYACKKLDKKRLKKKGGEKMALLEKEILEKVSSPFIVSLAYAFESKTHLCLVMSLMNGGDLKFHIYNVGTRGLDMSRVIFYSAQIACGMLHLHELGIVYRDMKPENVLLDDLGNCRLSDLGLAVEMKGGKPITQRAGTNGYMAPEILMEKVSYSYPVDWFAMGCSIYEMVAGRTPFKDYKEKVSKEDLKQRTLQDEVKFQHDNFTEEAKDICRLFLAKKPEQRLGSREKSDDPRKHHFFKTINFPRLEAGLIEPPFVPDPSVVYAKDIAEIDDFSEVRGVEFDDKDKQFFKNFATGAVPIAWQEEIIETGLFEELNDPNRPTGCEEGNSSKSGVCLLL

STK33(h) = target: T5, STK33(h) (Homo sapiens, UniProt Q9BYT3)
T5 construct: purchased Millipore KinaseProfiler

CK2(h) = target: T6, CK2(h) (Homo sapiens, UniProt P68400)
T6 construct: purchased Millipore KinaseProfiler

Ret (V804L)(h) = target: T7, Ret (V804L)(h) (Homo sapiens, UniProt P07949, V804L)
T7 construct: purchased Millipore KinaseProfiler

MST3(h) = target: T8, MST3(h) (Homo sapiens, UniProt Q9Y6E0)
T8 construct: purchased Millipore KinaseProfiler

PKCε(h) = target: T9, PKCε(h) (Homo sapiens, UniProt Q02156)
T9 construct: purchased Millipore KinaseProfiler
T9 sequence (Q02156 1-737): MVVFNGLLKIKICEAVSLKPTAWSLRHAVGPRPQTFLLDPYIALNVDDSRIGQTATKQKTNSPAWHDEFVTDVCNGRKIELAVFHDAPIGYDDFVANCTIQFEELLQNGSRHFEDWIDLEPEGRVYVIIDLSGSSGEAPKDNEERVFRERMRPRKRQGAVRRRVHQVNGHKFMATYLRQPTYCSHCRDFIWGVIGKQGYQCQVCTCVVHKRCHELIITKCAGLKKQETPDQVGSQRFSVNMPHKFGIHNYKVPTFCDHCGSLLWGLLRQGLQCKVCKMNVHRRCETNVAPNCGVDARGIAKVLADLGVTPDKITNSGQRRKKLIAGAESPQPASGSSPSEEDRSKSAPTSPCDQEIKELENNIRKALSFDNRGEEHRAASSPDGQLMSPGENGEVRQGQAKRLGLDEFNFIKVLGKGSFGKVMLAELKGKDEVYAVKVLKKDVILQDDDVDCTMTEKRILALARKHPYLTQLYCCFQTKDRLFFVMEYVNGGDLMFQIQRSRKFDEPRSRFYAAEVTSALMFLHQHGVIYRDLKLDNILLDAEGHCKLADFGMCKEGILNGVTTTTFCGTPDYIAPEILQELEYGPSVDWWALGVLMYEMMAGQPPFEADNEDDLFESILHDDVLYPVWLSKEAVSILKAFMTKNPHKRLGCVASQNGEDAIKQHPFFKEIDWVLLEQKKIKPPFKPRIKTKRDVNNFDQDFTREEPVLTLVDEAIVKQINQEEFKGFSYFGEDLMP

PDGFRα(D842V)(h) = target: T10, PDGFRα(D842V)(h) (Homo sapiens, UniProt P16234, D842V)
T10 construct: purchased Millipore KinaseProfiler

Blk(m) = target: T11, Blk(m) (Mus musculus, UniProt P16277)
T11 construct: purchased Millipore KinaseProfiler

Axl(h) = target: T12, Axl(h) (Homo sapiens, UniProt P30530)
T12 construct: purchased Millipore KinaseProfiler
T12 sequence (P30530 26-894): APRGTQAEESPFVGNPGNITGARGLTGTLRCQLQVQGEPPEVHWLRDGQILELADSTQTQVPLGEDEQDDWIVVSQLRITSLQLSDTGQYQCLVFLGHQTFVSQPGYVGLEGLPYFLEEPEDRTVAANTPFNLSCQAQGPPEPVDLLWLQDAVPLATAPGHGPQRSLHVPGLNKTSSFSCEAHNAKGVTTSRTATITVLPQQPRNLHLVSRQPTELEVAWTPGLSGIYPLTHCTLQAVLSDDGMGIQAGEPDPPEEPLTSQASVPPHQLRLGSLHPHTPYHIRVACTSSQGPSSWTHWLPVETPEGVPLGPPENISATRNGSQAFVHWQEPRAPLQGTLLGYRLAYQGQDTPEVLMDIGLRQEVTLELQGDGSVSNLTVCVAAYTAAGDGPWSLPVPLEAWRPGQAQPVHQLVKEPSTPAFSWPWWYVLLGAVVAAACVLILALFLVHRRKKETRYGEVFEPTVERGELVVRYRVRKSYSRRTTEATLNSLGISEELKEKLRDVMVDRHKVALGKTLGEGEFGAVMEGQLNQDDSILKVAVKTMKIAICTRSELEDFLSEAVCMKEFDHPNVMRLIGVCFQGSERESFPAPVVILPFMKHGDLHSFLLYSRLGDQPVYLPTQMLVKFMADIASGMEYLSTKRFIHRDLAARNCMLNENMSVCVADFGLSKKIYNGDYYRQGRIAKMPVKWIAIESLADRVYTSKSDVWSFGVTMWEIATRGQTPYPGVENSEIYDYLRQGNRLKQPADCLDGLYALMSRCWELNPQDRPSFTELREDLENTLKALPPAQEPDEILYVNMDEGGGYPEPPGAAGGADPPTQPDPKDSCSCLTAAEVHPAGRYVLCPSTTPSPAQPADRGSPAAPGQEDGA

T5 sequence (Q9BYT3 whole entry): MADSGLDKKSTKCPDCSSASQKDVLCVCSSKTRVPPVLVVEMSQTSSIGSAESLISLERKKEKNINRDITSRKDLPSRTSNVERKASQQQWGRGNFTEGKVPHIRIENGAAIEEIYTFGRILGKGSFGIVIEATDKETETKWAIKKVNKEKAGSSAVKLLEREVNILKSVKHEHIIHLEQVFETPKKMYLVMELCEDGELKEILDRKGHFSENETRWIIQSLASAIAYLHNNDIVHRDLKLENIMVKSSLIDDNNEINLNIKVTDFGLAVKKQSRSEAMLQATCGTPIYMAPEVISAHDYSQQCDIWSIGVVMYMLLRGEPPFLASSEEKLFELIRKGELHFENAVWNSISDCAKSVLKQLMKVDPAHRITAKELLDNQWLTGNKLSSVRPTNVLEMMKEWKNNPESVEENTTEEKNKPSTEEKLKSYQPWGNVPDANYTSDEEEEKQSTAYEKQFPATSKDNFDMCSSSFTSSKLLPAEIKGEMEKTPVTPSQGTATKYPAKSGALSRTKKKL
T2 sequence (P42345 1362-2549 limits assumed): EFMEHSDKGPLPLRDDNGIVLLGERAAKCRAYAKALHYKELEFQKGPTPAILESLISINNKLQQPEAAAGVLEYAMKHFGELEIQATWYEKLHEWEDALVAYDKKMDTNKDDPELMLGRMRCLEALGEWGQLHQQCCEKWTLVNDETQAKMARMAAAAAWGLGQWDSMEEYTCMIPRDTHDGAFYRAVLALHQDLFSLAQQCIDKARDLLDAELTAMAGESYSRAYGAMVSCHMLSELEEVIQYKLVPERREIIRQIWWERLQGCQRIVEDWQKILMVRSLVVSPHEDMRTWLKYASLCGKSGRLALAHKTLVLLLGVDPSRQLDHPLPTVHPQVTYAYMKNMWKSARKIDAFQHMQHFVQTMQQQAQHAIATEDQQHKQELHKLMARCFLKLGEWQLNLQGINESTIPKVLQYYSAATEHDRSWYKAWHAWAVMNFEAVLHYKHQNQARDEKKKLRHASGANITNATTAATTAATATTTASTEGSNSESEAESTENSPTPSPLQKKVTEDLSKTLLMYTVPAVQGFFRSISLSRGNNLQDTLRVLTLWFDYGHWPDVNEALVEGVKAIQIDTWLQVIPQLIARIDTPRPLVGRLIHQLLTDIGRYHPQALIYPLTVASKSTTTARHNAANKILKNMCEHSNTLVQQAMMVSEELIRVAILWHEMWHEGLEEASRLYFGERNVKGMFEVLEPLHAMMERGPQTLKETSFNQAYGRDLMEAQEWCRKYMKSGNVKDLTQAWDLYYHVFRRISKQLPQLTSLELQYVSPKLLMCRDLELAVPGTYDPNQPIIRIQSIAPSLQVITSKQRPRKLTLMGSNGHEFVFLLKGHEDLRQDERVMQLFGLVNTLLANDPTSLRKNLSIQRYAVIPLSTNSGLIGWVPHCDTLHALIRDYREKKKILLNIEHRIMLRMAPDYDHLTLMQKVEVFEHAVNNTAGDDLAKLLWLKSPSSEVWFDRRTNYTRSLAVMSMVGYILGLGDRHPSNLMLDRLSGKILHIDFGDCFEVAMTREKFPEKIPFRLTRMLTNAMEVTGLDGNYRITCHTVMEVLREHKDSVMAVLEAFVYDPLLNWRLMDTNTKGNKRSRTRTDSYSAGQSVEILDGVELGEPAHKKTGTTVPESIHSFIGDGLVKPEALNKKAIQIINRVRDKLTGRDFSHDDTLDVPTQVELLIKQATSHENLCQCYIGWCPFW
T1 sequence (Q9H422 whole entry): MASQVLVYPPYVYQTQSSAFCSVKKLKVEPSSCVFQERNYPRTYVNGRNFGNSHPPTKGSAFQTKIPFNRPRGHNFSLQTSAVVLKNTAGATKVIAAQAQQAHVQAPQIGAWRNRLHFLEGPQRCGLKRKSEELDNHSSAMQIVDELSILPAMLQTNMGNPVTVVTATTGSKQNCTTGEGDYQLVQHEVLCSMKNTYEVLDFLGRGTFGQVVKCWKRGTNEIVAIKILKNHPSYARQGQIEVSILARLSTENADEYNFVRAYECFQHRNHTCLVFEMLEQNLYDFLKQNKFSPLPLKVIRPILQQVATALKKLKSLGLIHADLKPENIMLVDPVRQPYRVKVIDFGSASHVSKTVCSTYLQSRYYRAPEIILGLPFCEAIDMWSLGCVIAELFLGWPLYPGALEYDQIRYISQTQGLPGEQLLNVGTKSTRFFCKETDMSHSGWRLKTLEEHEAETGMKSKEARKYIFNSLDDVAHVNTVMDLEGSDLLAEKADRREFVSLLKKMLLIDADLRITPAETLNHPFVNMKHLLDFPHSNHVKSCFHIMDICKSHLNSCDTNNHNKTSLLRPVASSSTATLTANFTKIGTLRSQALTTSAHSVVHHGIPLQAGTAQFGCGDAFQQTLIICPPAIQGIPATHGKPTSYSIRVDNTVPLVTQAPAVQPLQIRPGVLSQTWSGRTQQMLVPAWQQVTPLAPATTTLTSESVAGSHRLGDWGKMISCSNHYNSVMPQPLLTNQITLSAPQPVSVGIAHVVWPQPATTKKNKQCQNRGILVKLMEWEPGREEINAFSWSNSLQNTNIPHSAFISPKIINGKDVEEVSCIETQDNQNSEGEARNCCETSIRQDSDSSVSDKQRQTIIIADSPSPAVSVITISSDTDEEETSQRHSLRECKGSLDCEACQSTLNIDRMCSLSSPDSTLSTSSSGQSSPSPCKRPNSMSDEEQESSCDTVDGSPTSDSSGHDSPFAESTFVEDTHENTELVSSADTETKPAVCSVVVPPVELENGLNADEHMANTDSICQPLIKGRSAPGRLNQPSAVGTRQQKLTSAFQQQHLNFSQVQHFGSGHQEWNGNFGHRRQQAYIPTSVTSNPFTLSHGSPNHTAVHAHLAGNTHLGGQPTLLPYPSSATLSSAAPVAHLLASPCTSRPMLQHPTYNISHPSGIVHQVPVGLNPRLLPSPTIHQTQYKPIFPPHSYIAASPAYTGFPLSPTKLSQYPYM
T6 sequence (P68400 whole entry): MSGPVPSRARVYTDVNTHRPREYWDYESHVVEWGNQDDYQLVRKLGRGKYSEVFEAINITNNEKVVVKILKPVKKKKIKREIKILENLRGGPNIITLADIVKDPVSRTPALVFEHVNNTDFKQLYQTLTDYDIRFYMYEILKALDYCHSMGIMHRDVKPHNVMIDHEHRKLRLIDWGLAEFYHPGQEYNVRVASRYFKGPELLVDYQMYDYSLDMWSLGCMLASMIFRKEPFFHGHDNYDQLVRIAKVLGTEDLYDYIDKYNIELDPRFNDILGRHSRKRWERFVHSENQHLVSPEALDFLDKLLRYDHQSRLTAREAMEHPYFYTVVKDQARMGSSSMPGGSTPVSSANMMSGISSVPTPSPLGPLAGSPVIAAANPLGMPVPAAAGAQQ
T6 sequence (P67870 whole entry partner): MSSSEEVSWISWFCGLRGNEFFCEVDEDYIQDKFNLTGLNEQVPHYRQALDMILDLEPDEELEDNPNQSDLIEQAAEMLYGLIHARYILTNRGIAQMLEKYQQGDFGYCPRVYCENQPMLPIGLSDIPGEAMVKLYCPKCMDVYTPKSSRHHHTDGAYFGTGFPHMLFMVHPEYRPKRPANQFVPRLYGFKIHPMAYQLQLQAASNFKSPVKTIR
T10 sequence (P16234 24-1089 D842V): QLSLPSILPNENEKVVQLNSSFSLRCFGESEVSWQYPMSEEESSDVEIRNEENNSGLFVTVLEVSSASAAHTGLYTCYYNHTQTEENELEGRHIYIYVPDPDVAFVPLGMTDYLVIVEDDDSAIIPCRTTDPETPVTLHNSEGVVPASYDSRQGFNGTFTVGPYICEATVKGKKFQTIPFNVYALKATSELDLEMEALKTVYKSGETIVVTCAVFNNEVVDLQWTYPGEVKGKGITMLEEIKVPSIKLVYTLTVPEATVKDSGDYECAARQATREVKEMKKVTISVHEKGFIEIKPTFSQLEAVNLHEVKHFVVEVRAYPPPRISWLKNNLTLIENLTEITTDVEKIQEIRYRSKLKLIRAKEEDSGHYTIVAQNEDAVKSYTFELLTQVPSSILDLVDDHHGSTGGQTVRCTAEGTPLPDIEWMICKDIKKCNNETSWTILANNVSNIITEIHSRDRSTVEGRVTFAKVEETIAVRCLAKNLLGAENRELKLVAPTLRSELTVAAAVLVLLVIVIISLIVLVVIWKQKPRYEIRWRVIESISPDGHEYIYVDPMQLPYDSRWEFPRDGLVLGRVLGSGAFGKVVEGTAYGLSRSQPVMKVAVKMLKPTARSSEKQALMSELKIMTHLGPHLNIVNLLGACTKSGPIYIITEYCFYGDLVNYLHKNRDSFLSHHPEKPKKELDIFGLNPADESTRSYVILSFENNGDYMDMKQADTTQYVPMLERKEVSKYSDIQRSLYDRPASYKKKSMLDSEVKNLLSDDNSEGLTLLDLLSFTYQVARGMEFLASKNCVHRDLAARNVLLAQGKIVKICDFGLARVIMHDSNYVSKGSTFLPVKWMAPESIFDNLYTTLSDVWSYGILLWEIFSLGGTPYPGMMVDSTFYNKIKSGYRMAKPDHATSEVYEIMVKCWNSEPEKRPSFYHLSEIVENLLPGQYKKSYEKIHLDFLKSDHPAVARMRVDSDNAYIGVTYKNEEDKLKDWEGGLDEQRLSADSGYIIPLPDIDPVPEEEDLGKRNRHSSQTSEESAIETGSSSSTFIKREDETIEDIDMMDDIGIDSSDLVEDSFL
T8 sequence (Q9Y6E0 whole entry): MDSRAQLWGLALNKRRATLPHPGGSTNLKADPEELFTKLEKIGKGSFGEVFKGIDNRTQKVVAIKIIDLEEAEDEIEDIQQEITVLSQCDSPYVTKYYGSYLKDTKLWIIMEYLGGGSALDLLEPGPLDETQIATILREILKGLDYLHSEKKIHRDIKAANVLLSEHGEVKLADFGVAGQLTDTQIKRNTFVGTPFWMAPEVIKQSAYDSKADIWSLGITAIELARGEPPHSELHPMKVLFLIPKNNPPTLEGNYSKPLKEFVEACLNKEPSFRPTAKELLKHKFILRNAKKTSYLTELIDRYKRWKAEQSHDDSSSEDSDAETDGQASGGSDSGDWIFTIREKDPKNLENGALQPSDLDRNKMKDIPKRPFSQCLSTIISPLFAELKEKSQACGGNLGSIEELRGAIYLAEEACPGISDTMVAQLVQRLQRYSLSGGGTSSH

Q: Which inhibition at 0.5 µM (HIPK3(h); 0.5 µM, read-out: % Inhibition) does the source give for `Cn1ncc(Cl)c1-c1cc(C(=O)N[C@H](CN)Cc2ccc(F)c(F)c2)oc1Cl` [GSK2141795] here?
A: The inhibition at 0.5 µM was 7%.

Q: And the inhibition at 10 µM (HIPK3(h); 10 µM, read-out: % Inhibition)?
A: Its inhibition at 10 µM is 63%.

Q: What about the inhibition at 0.5 µM (mTOR/FKBP12(h); 0.5 µM, read-out: % Inhibition) of the same compound?
A: Its inhibition at 0.5 µM is -19%.

Q: And the inhibition at 10 µM (mTOR/FKBP12(h); 10 µM, read-out: % Inhibition)?
A: Its inhibition at 10 µM is -21%.

Q: And the inhibition at 0.5 µM (PDGFRβ(h); 0.5 µM, read-out: % Inhibition)?
A: The inhibition at 0.5 µM was -7%.

Q: And the inhibition at 10 µM (PDGFRβ(h); 10 µM, read-out: % Inhibition)?
A: Its inhibition at 10 µM is -4%.

Q: And the inhibition at 0.5 µM (GRK7(h); 0.5 µM, read-out: % Inhibition)?
A: Its inhibition at 0.5 µM is 42%.

Q: And the inhibition at 10 µM (GRK7(h); 10 µM, read-out: % Inhibition)?
A: The inhibition at 10 µM was 76%.

Q: What about the inhibition at 0.5 µM (STK33(h); 0.5 µM, read-out: % Inhibition) of the same compound?
A: Its inhibition at 0.5 µM is 82%.

Q: What about the inhibition at 10 µM (STK33(h); 10 µM, read-out: % Inhibition) of the same compound?
A: The inhibition at 10 µM was 77%.

Q: What about the inhibition at 0.5 µM (CK2(h); 0.5 µM, read-out: % Inhibition) of the same compound?
A: The inhibition at 0.5 µM was 4%.

Q: And the inhibition at 10 µM (CK2(h); 10 µM, read-out: % Inhibition)?
A: Its inhibition at 10 µM is 9%.

Q: What about the inhibition at 0.5 µM (Ret (V804L)(h); 0.5 µM, read-out: % Inhibition) of the same compound?
A: Its inhibition at 0.5 µM is 4%.

Q: What about the inhibition at 10 µM (Ret (V804L)(h); 10 µM, read-out: % Inhibition) of the same compound?
A: The inhibition at 10 µM was 21%.

Q: What about the inhibition at 0.5 µM (MST3(h); 0.5 µM, read-out: % Inhibition) of the same compound?
A: Its inhibition at 0.5 µM is 10%.

Q: What about the inhibition at 10 µM (MST3(h); 10 µM, read-out: % Inhibition) of the same compound?
A: Its inhibition at 10 µM is 63%.

Q: And the inhibition at 0.5 µM (PKCε(h); 0.5 µM, read-out: % Inhibition)?
A: The inhibition at 0.5 µM was 32%.

Q: What about the inhibition at 10 µM (PKCε(h); 10 µM, read-out: % Inhibition) of the same compound?
A: The inhibition at 10 µM was 81%.

Q: What about the inhibition at 0.5 µM (PDGFRα(D842V)(h); 0.5 µM, read-out: % Inhibition) of the same compound?
A: The inhibition at 0.5 µM was -5%.

Q: What about the inhibition at 10 µM (PDGFRα(D842V)(h); 10 µM, read-out: % Inhibition) of the same compound?
A: The inhibition at 10 µM was 15%.

Q: And the inhibition at 0.5 µM (Blk(m); 0.5 µM, read-out: % Inhibition)?
A: Its inhibition at 0.5 µM is -35%.

Q: What about the inhibition at 10 µM (Blk(m); 10 µM, read-out: % Inhibition) of the same compound?
A: Its inhibition at 10 µM is 8%.

Q: What about the inhibition at 0.5 µM (Axl(h); 0.5 µM, read-out: % Inhibition) of the same compound?
A: Its inhibition at 0.5 µM is -2%.

Q: What about the inhibition at 10 µM (Axl(h); 10 µM, read-out: % Inhibition) of the same compound?
A: The inhibition at 10 µM was -6%.

Q: With `Cn1ncc(Cl)c1-c1cc(C(=O)N[C@H](CN)Cc2cccc(F)c2)sc1Cl` [GSK2110183] as the compound, how does the inhibition at 0.5 µM (HIPK3(h)) read?
A: The inhibition at 0.5 µM was -3%.

Q: And the inhibition at 10 µM (HIPK3(h))?
A: Its inhibition at 10 µM is 72%.

Q: And the inhibition at 0.5 µM (mTOR/FKBP12(h))?
A: Its inhibition at 0.5 µM is 3%.

Q: What about the inhibition at 10 µM (mTOR/FKBP12(h)) of the same compound?
A: The inhibition at 10 µM was 5%.

Q: What about the inhibition at 0.5 µM (PDGFRβ(h)) of the same compound?
A: The inhibition at 0.5 µM was 2%.

Q: What about the inhibition at 10 µM (PDGFRβ(h)) of the same compound?
A: The inhibition at 10 µM was 5%.

Q: And the inhibition at 0.5 µM (GRK7(h))?
A: The inhibition at 0.5 µM was 64%.

Q: What about the inhibition at 10 µM (GRK7(h)) of the same compound?
A: Its inhibition at 10 µM is 96%.

Q: What about the inhibition at 0.5 µM (STK33(h)) of the same compound?
A: The inhibition at 0.5 µM was 56%.

Q: What about the inhibition at 10 µM (STK33(h)) of the same compound?
A: Its inhibition at 10 µM is 94%.

Q: And the inhibition at 0.5 µM (CK2(h))?
A: The inhibition at 0.5 µM was 3%.

Q: What about the inhibition at 10 µM (CK2(h)) of the same compound?
A: Its inhibition at 10 µM is 8%.

Q: What about the inhibition at 0.5 µM (Ret (V804L)(h)) of the same compound?
A: The inhibition at 0.5 µM was -5%.

Q: And the inhibition at 10 µM (Ret (V804L)(h))?
A: Its inhibition at 10 µM is 16%.

Q: What about the inhibition at 0.5 µM (MST3(h)) of the same compound?
A: The inhibition at 0.5 µM was 14%.

Q: What about the inhibition at 10 µM (MST3(h)) of the same compound?
A: Its inhibition at 10 µM is 50%.

Q: And the inhibition at 0.5 µM (PKCε(h))?
A: Its inhibition at 0.5 µM is 19%.

Q: What about the inhibition at 10 µM (PKCε(h)) of the same compound?
A: Its inhibition at 10 µM is 80%.

Q: And the inhibition at 0.5 µM (PDGFRα(D842V)(h))?
A: Its inhibition at 0.5 µM is -16%.

Q: What about the inhibition at 10 µM (PDGFRα(D842V)(h)) of the same compound?
A: The inhibition at 10 µM was -4%.

Q: And the inhibition at 0.5 µM (Blk(m))?
A: The inhibition at 0.5 µM was -12%.

Q: And the inhibition at 10 µM (Blk(m))?
A: The inhibition at 10 µM was 9%.

Q: And the inhibition at 0.5 µM (Axl(h))?
A: The inhibition at 0.5 µM was 6%.

Q: What about the inhibition at 10 µM (Axl(h)) of the same compound?
A: The inhibition at 10 µM was 37%.
